Like-named read-outs stand apart in the source and are kept apart here.

Data set [1] has as its system 6-OHDA Parkinson's disease model with L-DOPA resistance. Description: 6-OHDA-induced rat rotation experiment, second stage: L-DOPA resistance (rotation response time). In kind it is in vivo, Wistar rats. The source says:
After long-term use of levodopa, patients with Parkinson's disease are prone to drug resistance (end-of-dose phenomenon). That is, the duration of its pharmaceutical effect tends to gradually become shorter (shortened opening period), its efficacy will become weaker and weaker, and the symptoms of the patients are becoming more and more uncontrollable. By the combined use with the test compound, the efficacy of levodopa can be restored for patients with Parkinson's disease in the off phase, who have already experienced the end-of-dose phenomenon. The rat model of Parkinson's disease was constructed by fixed-point injection of 6-hydroxydopamine (6-OHDA) to damage the substantia nigra striatum, and then the animals were administrated with levodopa (L-DOPA)/Benserazide (BID) for a long term (3-4 weeks as planned). […] On Day 22, at 60 minutes before the intraperitoneal injection of L-DOPA (20 mg/kg)/Benserazide (5 mg/kg), each test group was orally administered with the vehicle, test drug or positive drug. […] Four rotation tests were performed on Days 0, 7, 14 and 21 respectively. On the day of test, both the test drug and the control drug were administered orally only once. On this day, all test animals were also administered with L-DOPA (20 mg/kg)/Benserazide (5 mg/kg) once by intraperitoneal injection to induce rotation. In the second stage, the time for counting rotation with the rotation counter is 180 min. [table] In the second stage, after the intraperitoneal injection of L-DOPA/Benserazide to the experimental animals, the total number of rotations was recorded every 5 min, and the number of rotations per 5 min was calculated based on this, and the 5 min with the largest number of rotations was found from it, and the number of rotations within this 5 min was defined as the peak number of rotations. The first 5 minutes when the number of rotations increased to 20% of the peak number of rotations was the starting point of the rotation response time, and the first 5 minutes when the number of rotations dropped to 20% of the peak number of rotations was the terminating point of the rotation response time. The time between the starting point and the terminating point was regarded as the rotation response time. The test results are represented as “mean±standard deviation”. The data was statistically analyzed by the SPSS16.0 software package. One-way ANOVA, paired sample T test and independent sample T test were used for comparison, with P<0.05 showing a statistical difference.

The next data set has as its target T1, human ADORA2A (Homo sapiens, UniProt P29274).
T1 construct: host or cells: CHO
The data set can be described thus: Calcium flow test (FLIPR), ADORA2A stably transfected CHO. Format: cell-based. The conditions noted are these: Table 9. The source says:
(§1) The binding of the A2AR agonist to A2AR could activate a downstream pathway to increase the intracellular calcium ion concentration. The antagonist would competitively occupy the binding site where the agonist binds to A2AR, thereby interrupting the intracellular signal transduction and leading to a change in the intracellular calcium ion concentration. By detecting the strength of the intracellular calcium ion signal, the antagonistic activities of the compound on human ADORA1, ADORA2A, ADORA2B and ADORA3 adenosine receptors were determined. […]
(§2) 7) The FLIPR instrument software was operated; following a set program, 10 μL of experimental buffer salt solution was added to the cell plate; and fluorescence signals were read. Then, 10 μL of the reference compound of agonist at a predetermined concentration was added to the cell plate, and the fluorescence signals were read. After reading, data was exported by means of “Max-Min” and “Read 91 to Maximum allowed” in the software, the EC80 of each cell line was calculated, and an agonist with a concentration of 6×EC80 was prepared.
(§3) 9) The FLIPR instrument software was operated; following a set program, 10 μL of the test compound and 10 μL of the reference compound were added at a predetermined concentration to the cell plate; and the fluorescence signals were read. […]

For another data set, the target named is T2, human ADORA2B (Homo sapiens, UniProt P29275).
T2 construct: host or cells: HEK293
Description: Calcium flow test (FLIPR), ADORA2B stably transfected HEK293. In kind it is cell-based. Conditions: Table 9.
Excerpt: as §1, §2, §3

Data set [2] is described as follows: Pharmacokinetics of test compounds in SD rats (15.2; IV and PO, mixed administration). Format: in vivo. Conditions: for Cl_pred / AUC(0-t) / Cmax / half-life: IV; for AUC(0-t) / Cmax / half-life: male, Sprague-Dawley, rat, plasma; for half-life: read-out: T½ (converted).
Where [3] appears, read: Group 5 (10 mg/kg, Day 22) + L-DOPA/Benserazide, before test drug.
[4] abbreviates: Group 8: 10 mg/kg oral BID*21 + L-DOPA/Benserazide.
Setting [5] is: Group 3 (7.5 mg/kg, Day 22) + L-DOPA/Benserazide, before test drug.
[6] abbreviates: Group 4 (15 mg/kg, Day 22) + L-DOPA/Benserazide, before test drug.
The mark [7] stands for this setting: Group 6 (30 mg/kg, Day 22) + L-DOPA/Benserazide, before test drug.
[8] abbreviates: Group 7: 5 or 10 mg/kg oral BID*21 + L-DOPA/Benserazide.

T1 sequence (P29274 whole entry): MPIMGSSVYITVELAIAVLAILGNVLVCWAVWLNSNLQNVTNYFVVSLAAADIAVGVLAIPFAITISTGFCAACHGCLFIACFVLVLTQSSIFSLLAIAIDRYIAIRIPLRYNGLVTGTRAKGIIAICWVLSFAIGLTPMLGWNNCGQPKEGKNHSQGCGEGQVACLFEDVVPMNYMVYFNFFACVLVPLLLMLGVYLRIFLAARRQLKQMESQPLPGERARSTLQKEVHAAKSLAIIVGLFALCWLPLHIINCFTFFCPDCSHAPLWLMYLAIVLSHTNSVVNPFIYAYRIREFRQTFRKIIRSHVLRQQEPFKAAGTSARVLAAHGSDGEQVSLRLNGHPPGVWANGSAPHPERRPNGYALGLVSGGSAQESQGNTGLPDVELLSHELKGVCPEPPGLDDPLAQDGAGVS
T2 sequence (P29275 whole entry): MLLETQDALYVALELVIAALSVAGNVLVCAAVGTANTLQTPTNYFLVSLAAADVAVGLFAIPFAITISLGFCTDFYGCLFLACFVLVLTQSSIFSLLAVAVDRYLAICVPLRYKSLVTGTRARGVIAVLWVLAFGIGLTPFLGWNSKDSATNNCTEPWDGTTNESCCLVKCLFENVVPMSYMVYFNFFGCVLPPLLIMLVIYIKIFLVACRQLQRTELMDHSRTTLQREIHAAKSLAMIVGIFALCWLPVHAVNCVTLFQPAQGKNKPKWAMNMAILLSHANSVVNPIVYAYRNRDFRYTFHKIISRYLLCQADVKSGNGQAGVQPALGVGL

For `CCn1c(=O)c2c(nc(/C=C/c3ccc(OC)c(OC)c3)n2C)n(CC)c1=O` [Istradefylline, reference compound], in data set [1] (setting [3]), the “Rotational reaction time - Day 0” value amounted to 116.1 ± 34.4 min, the “Rotational reaction time - Day 7” value was determined as 126.7 ± 10.6 min, the “Rotational reaction time - Day 14” value is recorded as 116.3 ± 13.8 min and the “Rotational reaction time - Day 21” value stood at 114.4 ± 15.9 min. In addition, in data set [1] (Group 5: 10 mg/kg single oral Day 22 + L-DOPA/Benserazide), the “Rotational reaction time - Day 22” value is 150.6 ± 37.8& min. Besides, in data set [1] (setting [4]), the “Rotational reaction time - Day 0” value came to 161.5 ± 14.2 min and the “Rotational reaction time - Day 7” value is 125.0 ± 23.5 min.

`Cn1nnc(-c2ccc(CCNc3nc(N)n4nc(-c5ccco5)nc4n3)cc2)n1` [Compound 40, N5-(4-(2-methyl-2H-tetrazol-5-yl)phenethyl)-2-(furan-2-yl)-[1,2,4]triazolo[1,5-a][1,3,5]triazine-5,7-diamine]: the IC50 – broadly, the concentration at which inhibition is half-maximal – at human ADORA2A was found to be 1.17 ± 0.62 nM. Also, the concentration for half-maximal inhibition (IC50) at human ADORA2B was determined as 194 ± 25.5 nM. In data set [2] (1 mg/kg), the Cl_pred amounted to 11.834 mL/min/kg; the AUC(0-t) (as a rule, the area under the concentration-time curve up to a stated or last time point) was determined as 1410 ng·h/mL; the concentration peaked (Cmax) at 1280 ng/mL; the half-life is 46.8 min. In addition, in data set [2] (1.64 mg/kg), the Cl_pred came out at 27.0478 mL/min/kg; the AUC(0-t) was found to be 1010 ng·h/mL; the Cmax (in general, the maximum level reached in the sampled fluid or tissue) turned out to be 1310 ng/mL; the half-life was 31.8 min. Further, in data set [2] (PO, […]), the Cl_F_pred worked out at 23.254 mL/min/kg and the F was determined as 116.3%.

As to `CC(=O)O.Nc1nc(NCCc2ccc(NC3COC3)cc2)nc2nc(-c3ccco3)nn12` [Acetate of Compound 22, 2-(furan-2-yl)-N5-(4-(oxetane-3-ylamino)phenethyl)-[1,2,4]triazolo[1,5-a][1,3,5]triazine-5,7-diamine acetate], the “Rotational reaction time - Day 0” value was found to be 129.0 ± 9.1 min in data set [1] (setting [5]), 128.9 ± 11.7 min in data set [1] (setting [6]), 135.0 ± 13.1 min in data set [1] (setting [7]) and 150.5 ± 11.9 min in data set [1] (setting [8]). Further, the “Rotational reaction time - Day 7” value is 110.0 ± 27.1 min in data set [1] (setting [5]), 113.3 ± 13.0 min in data set [1] (setting [6]), 121.0 ± 13.3 min in data set [1] (setting [7]) and 145.6 ± 3.0 min in data set [1] (setting [8]). The “Rotational reaction time - Day 14” value in data set [1] (setting [5]) came out at 109.5 ± 11.7 min; in data set [1] (setting [6]) it was 111.1 ± 17.8 min; in data set [1] (setting [7]) it was 110.6 ± 21.9 min; in data set [1] (setting [8]) it was 133.9 ± 8.9 min. Besides, the “Rotational reaction time - Day 21” value in data set [1] (setting [5]) was 111.5 ± 14.0 min; in data set [1] (setting [6]), 97.5 ± 42.7 min; in data set [1] (setting [7]), 104.4 ± 23.0 min; in data set [1] (setting [8]), 128.3 ± 13.5 min. Besides, the entries for the “Rotational reaction time - Day 22” value in data set [1] (Group 3: 7.5 mg/kg single oral Day 22 + L-DOPA/Benserazide), in data set [1] (Group 4: 15 mg/kg single oral Day 22 + L-DOPA/Benserazide) and in data set [1] (Group 6: 30 mg/kg single oral Day 22 + L-DOPA/Benserazide) were 133.5 ± 30.0^ min, 146.3 ± 37.0& min and 153.9 ± 22.7& min, respectively. Also, in data set [1] (during the test period, vs model control group), the “Effect on body weight of the test animal” value was “no significant effect on the body weight”.

For `Nc1nc(NCCc2ccc(NC3COC3)cc2)nc2nc(-c3ccco3)nn12` [Compound 22, 2-(furan-2-yl)-N5-(4-(oxetan-3-ylamino)phenethyl)-[1,2,4]triazolo[1,5-a][1,3,5]triazine-5,7-diamine], the figures for the IC50 on human ADORA2A and on human ADORA2B were 0.35 ± 0.07 nM and 106 ± 29.2 nM, respectively.

Consider `COCCNc1ccc(CCNc2nc(N)n3nc(-c4ccco4)nc3n2)cc1` [Compound 27, 2-(furan-2-yl)-N5-(4-((2-methoxyethyl)amino)phenethyl)-[1,2,4]triazolo[1,5-a][1,3,5]triazine-5,7-diamine], for which, in data set [2] (1 mg/kg), the Cl_pred is 188.857 mL/min/kg, the AUC(0-t) is 83.8 ng·h/mL, the concentration peaked (Cmax) at 139 ng/mL and the half-life is 28.2 min.

Source of the values: patent US20230048888A1, “USE OF TRIAZOLOTRIAZINE DERIVATIVE IN TREATMENT OF DISEASES” (ZHEJIANG VIMGREEN PHARMACEUTICALS, LTD., priority 2019, published 2023).
